Reference: US20060094002A1 (priority 2002, published 2006)

Test system: Aspergillus (A. nidulans, A. niger, A. awamori)
Experiment: Effect of known antifungal drugs on [Ca2+]c in different Aspergillus species
Type: cell-based
Details: FIGS. 22a, b
Description: Procedure: • The fungus can be either transformed with the recombinant aequorin gene or can be injected with the active aequorin. • Then this fungus can be subjected to a range of the antifungal drugs, profiles of which have already been created. • Obtained profiles can be compared with the library of the fingerprints and this way the fungal species can be identified.

| SMILES | [Ca^2+]c response in 3 different species of Aspergillus |
| --- | --- |
| C[C@@H]1[C@H](O)[C@@H](C)/C=C/C=C/C=C/C=C/C=C/C=C/C=C/[C@H](O[C@@H]2O[C@H](C)[C@@H](O)[C@H](N)[C@@H]2O)C[C@@H]2O[C@](O)(C[C@@H](O)C[C@@H](O)[C@H](O)CC[C@@H](O)C[C@@H](O)CC(=O)O[C@H]1C)C[C@H](O)[C@H]2C(=O)O [amphotericin B] | caused a different [Ca^2+]c response |
| Clc1ccccc1C(c1ccccc1)(c1ccccc1)n1ccnc1 [clotrimazole] | caused a different [Ca^2+]c response |
| CCCCC[C@@H](O)[C@H]1C(=O)O[C@H](C)[C@@H](O)/C=C/C=C/C=C/C=C/C=C(\C)[C@@H](O)C[C@H](O)C[C@H](O)C[C@H](O)C[C@H](O)C[C@H](O)C[C@@H]1O [filipin] | caused a different [Ca^2+]c response |
| CC(=O)N1CCN(c2ccc(OCC3COC(Cn4ccnc4)(c4ccc(Cl)cc4Cl)O3)cc2)CC1 (centres unmarked) [ketoconazole] | caused a different [Ca^2+]c response |
| C[C@@H]1[C@H](O)[C@@H](C)/C=C/C=C/CC/C=C/C=C/C=C/C=C/C(O[C@H]2O[C@H](C)[C@@H](O)[C@H](N)[C@@H]2O)CC2O[C@](O)(CC(O)C(O)CCC(O)CC(O)CC(O)CC(=O)O[C@H]1C)CC(O)C2C(=O)O (some centres unmarked) [nystatin] | caused a different [Ca^2+]c response |
